Data set [1] concerns the target T1, rat BCAT cytosolic form (Rattus norvegicus, UniProt P54690).
T1 construct: made in house; host or cells: E. coli BL21(DE3)
T1 sequence (P54690 1-411): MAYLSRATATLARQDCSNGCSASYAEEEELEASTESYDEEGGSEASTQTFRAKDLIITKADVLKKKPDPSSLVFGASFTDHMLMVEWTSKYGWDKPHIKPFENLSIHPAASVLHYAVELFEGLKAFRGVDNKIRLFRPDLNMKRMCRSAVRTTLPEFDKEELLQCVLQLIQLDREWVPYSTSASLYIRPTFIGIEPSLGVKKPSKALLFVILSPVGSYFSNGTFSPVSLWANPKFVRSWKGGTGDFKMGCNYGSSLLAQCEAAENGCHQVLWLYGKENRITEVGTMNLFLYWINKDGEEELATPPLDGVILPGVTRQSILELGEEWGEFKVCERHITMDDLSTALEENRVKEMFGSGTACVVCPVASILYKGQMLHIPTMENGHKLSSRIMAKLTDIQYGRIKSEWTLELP
Nature of the data set: In vitro coupled enzyme assay (glutamate dehydrogenase, NADH formation), rat BCATc. The note with it: recombinant rat BCATc, 37° C., 25 mM phosphate buffer pH 7.8; several values in a cell = repeat determinations; read-out: RrBCATc. Type of data set: biochemical. The method, boiled down:
(§1)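 At 37 °C in 25 mM phosphate pH 7.8 with 2 mM DTT, 1.25 μg His-tag-purified E. coli-expressed BCAT transaminated 750 μM L-leucine with 500 μM α-ketoglutarate and 10 μM PLP. Glutamate was coupled via glutamate dehydrogenase (1 mM NAD+, 4 mM ADP) to NADH formation at 340 nm. Compounds were added in DMSO up to 5% v/v.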

For data set [2], the target named is T2, human Branched Chain Amino Acid Aminotransferase cytosolic form (hBCATc) (Homo sapiens, UniProt P54687).
T2 construct: made in house; host or cells: E. coli BL21(DE3)
T2 sequence (P54687 1-386): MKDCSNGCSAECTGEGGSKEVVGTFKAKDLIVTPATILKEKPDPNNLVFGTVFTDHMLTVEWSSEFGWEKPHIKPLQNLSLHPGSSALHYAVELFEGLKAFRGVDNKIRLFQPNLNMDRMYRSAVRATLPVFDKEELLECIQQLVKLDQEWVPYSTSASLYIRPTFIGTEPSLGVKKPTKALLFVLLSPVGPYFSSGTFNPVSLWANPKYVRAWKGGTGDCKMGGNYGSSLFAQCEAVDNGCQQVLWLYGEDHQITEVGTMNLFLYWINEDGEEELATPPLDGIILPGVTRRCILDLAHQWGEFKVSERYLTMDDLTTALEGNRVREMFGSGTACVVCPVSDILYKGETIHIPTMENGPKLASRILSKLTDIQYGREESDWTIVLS
Nature of the data set: In vitro coupled enzyme assay (glutamate dehydrogenase, NADH formation), human BCATc. In kind it is biochemical. To be noted: recombinant human BCATc, 37° C., 25 mM phosphate buffer pH 7.8; several values in a cell = repeat determinations; read-out: RhBCATc. An outline of the steps:
as §1

What is called melting point is the temperature, or range, at which the solid turns liquid.

Several values for one entry are separate records, joined by “and”; a condition that tells them apart may be missing. Equal entries are not always repeated.

In turn, `O=C(NNS(=O)(=O)c1ccccc1)c1ccc2[nH]c3c(c2c1)CCCC3` [Example 2, 2,3,4,9-Tetrahydro-1H-carbazole-6-carboxylic acid 2-(phenylsulfonyl)hydrazide] returned a melting point above 250 °C. The IC50 in data set [1] was 0.13 µM. In addition, the IC50 in data set [2] was determined as 2.6 µM.

As to `COc1cccc2cc(C(=O)NNS(=O)(=O)c3ccccc3)oc12` [Example 5, 7-Methoxy-2-benzofurancarboxylic acid 2-(phenylsulfonyl)hydrazide], the melting point was 164 to 165 °C. The IC50 in data set [1] was 0.86 µM and 0.46 µM and 0.53 µM. Also, the IC50 in data set [2] was 5.76 µM and 3 µM.

Regarding `O=C(NNS(=O)(=O)c1cccc(Cl)c1)c1ccc2oc3ccccc3c2c1` [Example 16, 2-Dibenofurancarboxylic acid 2-[(3-chlorophenyl)sulfonyl]hydrazide], the melting point lay in the range of 208 to 209 °C. Moreover, the IC50 in data set [1] is 0.39 µM and 0.2 µM. Moreover, the IC50 in data set [2] was 3 µM and 3.1 µM.

Take `O=C(NNS(=O)(=O)c1ccccc1Cl)c1ccc2oc3ccccc3c2c1` [Example 17, 2-Dibenzofurancarboxylic acid 2-[(2-chlorophenyl)sulfonyl]hydrazide]: the melting point was 235 to 236 °C. The IC50 in data set [1] was 1.1 µM and 0.54 µM. Moreover, the IC50 in data set [2] amounted to 11.4 µM.

In the case of `O=C(NNS(=O)(=O)c1cc(Cl)cc(Cl)c1)c1ccc2oc3ccccc3c2c1` [Example 18, Dibenzofuran-2-carboxylic acid 2-(3,5-dichlorophenylsulfonyl)hydrazide], the melting point was in the range of 231 to 233 °C. Further, the IC50 in data set [1] was 0.53 µM and 0.4 µM. Further, the IC50 in data set [2] stood at 7.9 µM.

`Cc1c(Cl)cccc1S(=O)(=O)NNC(=O)c1ccc2oc3ccccc3c2c1` [Example 19, Dibenzofuran-2-carboxylic acid 2-(3-chloro-2-methyl-phenylsulfonyl)hydrazide] registered a melting point of 192 to 194 °C. For the same compound, the IC50 in data set [1] was 0.22 µM. The IC50 in data set [2] worked out at 6.7 µM.

The compound `O=C(NNS(=O)(=O)c1ccc(F)cc1)c1cc2cc(Cl)ccc2o1` [Example 22, 2-Benzofurancarboxylic acid, 5-chloro-2-[(4-fluorophenyl)]sulfonyl hydrazide] gave a melting point of 229.4 to 230.5 °C. For the same compound, in data set [1], the IC50 was 4.1 µM. Moreover, in data set [2], the IC50 was 24.6 µM.

The compound `COc1cccc2cc(C(=O)NNS(=O)(=O)c3ccc(F)cc3)oc12` [Example 23, 2-Benzofurancarboxylic acid, 7-methoxy-, 2-[(4-fluoro-phenyl)sulfonyl]hydrazide] yielded a melting point of 182.7 to 183.3 °C. For the same compound, the IC50 in data set [1] was determined as 5.4 µM. In addition, the IC50 in data set [2] turned out to be 17.8 µM.

For `O=C(NNS(=O)(=O)c1ccc(F)cc1)c1ccc2oc3ccccc3c2c1` [Example 24, 2-Dibenzofurancarboxylic acid 2-[(4-fluorophenyl)sulfonyl]hydrazide], the melting point lay within 206.3 to 207 °C. The IC50 in data set [1] stood at 1.2 µM. In addition, the IC50 in data set [2] worked out at 24 µM.

Compound `O=C(NNS(=O)(=O)c1ccc(F)cc1Cl)c1ccc2oc3ccccc3c2c1` [Example 25, 2-Dibenzofurancarboxylic acid 2-[(2-chloro-4-fluorophenyl)sulfonyl]hydrazide] showed a melting point of 227.5 to 227.8 °C. The IC50 in data set [1] came to 1.8 µM. Further, in data set [2], the IC50 came to 21.9 µM.

Turning to `O=C(NNS(=O)(=O)c1cccc(Cl)c1Cl)c1ccc2oc3ccccc3c2c1` [Example 110, 2-Dibenzofurancarboxylic acid, 2-[(2,3-dichlorophenyl)sulfonyl]hydrazide], the results for the IC50 in data set [1] and in data set [2] were 0.72 µM and 11.1 µM, respectively.

On to `Cc1cccc(S(=O)(=O)NNC(=O)c2ccc3ccccc3c2)c1` [Example 111, 2-Naphthalenecarboxylic acid, 2-[(3-methylphenyl)sulfonyl]hydrazide], for which the IC50 in data set [1] was 0.47 µM; in data set [2], 0.47 µM and 2.8 µM.

Take `Cc1ccc(S(=O)(=O)NNC(=O)c2ccc3ccccc3c2)cc1` [Example 112, 2-Naphthalenecarboxylic acid, 2-[(4-methylphenyl)sulfonyl]hydrazide]: the IC50 in data set [1] came to 6.2 µM; in data set [2] it was 14.6 µM.

Consider `O=C(NNS(=O)(=O)c1ccccc1C(F)(F)F)c1ccc2ccccc2c1` [Example 113], for which the IC50 worked out at 0.53 µM in data set [1] and 4.1 µM in data set [2].

As to `O=C(NNS(=O)(=O)c1ccc(C(F)(F)F)cc1)c1ccc2ccccc2c1` [Example 114], the values for the IC50 in data set [1] and in data set [2] were 26.5 µM and 59.7 µM, respectively.

With `O=C(NNS(=O)(=O)c1ccc(F)c(Cl)c1)c1ccc2ccccc2c1` [Example 115, 2-Naphthalenecarboxylic acid, 2-[(3-chloro-4-fluorophenyl)sulfonyl]hydrazide], the IC50 in data set [1] was 5.2 µM; in data set [2] it was 59.9 µM.

For `COc1cccc(S(=O)(=O)NNC(=O)c2ccc3ccccc3c2)c1` [Example 116, 2-Naphthalenecarboxylic acid, 2-[(3-methoxyphenyl)sulfonyl]hydrazide], the results for the IC50 in data set [1] and in data set [2] were 1.2 µM and 8.2 µM, respectively.

In the case of `O=C(NNS(=O)(=O)c1cccc(Cl)c1)c1ccc2ccccc2c1` [Example 117, 2-Naphthalenecarboxylic acid, 2-[(3-chlorophenyl)sulfonyl]hydrazide], the IC50 amounted to 0.82 µM in data set [1] and 5.7 µM in data set [2].

In the case of `O=C(NNS(=O)(=O)c1ccccc1Cl)c1ccc2ccccc2c1` [Example 118, 2-Naphthalenecarboxylic acid, 2-[(2-chlorophenyl)sulfonyl]hydrazide], the results for the IC50 in data set [1] and in data set [2] were 1.8 µM and 25 µM, respectively.

For the compound `O=C(NNS(=O)(=O)c1cccc(F)c1)c1ccc2ccccc2c1` [Example 119, 2-Naphthalenecarboxylic acid, 2-[(3-fluorophenyl)sulfonyl]hydrazide], the IC50 was 2.2 µM in data set [1] and 12.7 µM in data set [2].

Turning to `O=C(NNS(=O)(=O)c1cccc(Cl)c1Cl)c1ccc2ccccc2c1` [Example 120, 2-Naphthalenecarboxylic acid, 2-[(2,3-dichlorophenyl)sulfonyl]hydrazide], the figures for the IC50 in data set [1] and in data set [2] were 2 µM and 18.1 µM, respectively.

`CCc1ccc(S(=O)(=O)NNC(=O)c2ccc3ccccc3c2)cc1` [Example 121, 2-Naphthalenecarboxylic acid, 2-[(4-ethylphenyl)sulfonyl]hydrazide]: the IC50 in data set [1] was 11.6 µM; in data set [2] it was 55 µM.

Regarding `CCCCCc1ccc(S(=O)(=O)NNC(=O)c2cnc3ccccc3c2)cc1` [Example 122, 3-Quinolinecarboxylic acid, 2-[(4-pentylphenyl)sulfonyl)hydrazide], the IC50 was determined as 56.7 µM in data set [1] and 58 µM in data set [2].

For `O=C(NNS(=O)(=O)c1ccccc1C(F)(F)F)c1cnc2ccccc2c1` [Example 123, 3-Quinolinecarboxylic acid, 2-[[2-(trifluoromethyl)phenyl]sulfonyl]hydrazide], the figures for the IC50 in data set [1] and in data set [2] were 2.2 µM and 11.6 µM, respectively.

Consider `Cc1cccc(S(=O)(=O)NNC(=O)c2cnc3ccccc3c2)c1` [Example 125, 3-Quinolinecarboxylic acid, 2-[(3-methylphenyl)sulfonyl]hydrazide], for which the IC50 worked out at 2.4 µM in data set [1] and 18.4 µM in data set [2].

Consider `O=C(NNS(=O)(=O)c1ccccc1OC(F)(F)F)c1cnc2ccccc2c1` [Example 126, 3-Quinolinecarboxylic acid, 2-[[2-(trifluoromethoxy)phenyl]sulfonyl]hydrazide], for which the IC50 was found to be 12.5 µM in data set [1] and 36.2 µM in data set [2].

Turning to `O=C(NNS(=O)(=O)c1ccccc1)c1cc2ccccc2o1` [Example 146, Benzofuran-2-carboxylic acid 2-(phenylsulfonyl)hydrazide], the IC50 was 2.5 µM in data set [1] and 17.8 µM in data set [2].

Turning to `O=C(NNS(=O)(=O)c1ccccc1)c1ccc2[nH]ccc2c1` [Example 153, 1H-Indole-5-carboxylic acid 2-(phenylsulfonyl)hydrazide], the IC50 was found to be 1.9 µM in data set [1] and 15.3 µM in data set [2].

For the compound `O=C(NNS(=O)(=O)c1ccccc1)c1cnc2ccccc2c1` [Example 154, Quinoline-3-carboxylic acid 2-(phenylsulfonyl)hydrazide], the IC50 in data set [1] was 3.6 µM; in data set [2], 24.2 µM.

Values taken from patent US20050004167A1, “Branched chain amino acid-dependent aminotransferase inhibitors and their use in the treatment of neurodegenerative diseases” (WARNER-LAMBERT COMPANY LLC, priority 2001, published 2005).
